Experimental data reported in ChEMBL document CHEMBL1201862, “PubChem BioAssay data set” (2004).
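Cultured in 96-well plates, cells were exposed to test compound for 48 hours across five concentrations. The concentration for 50% growth inhibition is given as GI50.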 Activity calls are given as the source filed them. Cut-off read from the data, not from the text of the source: active = GI50 up to about 1.1 µM and inactive = higher.

Experiments:
Assay in all cases: inhibition of tumour cell growth, NCI panel, 48 h
[1] = test system: NCI-H522
[2] = test system: HCT-116
[3] = test system: NCI-H460
[4] = test system: SK-MEL-5
[5] = test system: SK-MEL-2
[6] = test system: SNB-19
[7] = test system: SF-268
[8] = test system: LOX IMVI
[9] = test system: ACHN
[10] = test system: SN12C
[11] = test system: SNB-75
[12] = test system: COLO 205
[13] = test system: UACC-257
[14] = test system: CCRF-CEM
[15] = test system: SF-295
[16] = test system: OVCAR-3
[17] = test system: Malme-3M
[18] = test system: HOP-92
[19] = test system: RPMI-8226

Measured: GI50

CN1c2ccccc2N(C)C23N(C)c4ccccc4N(C)C12N(C)c1ccccc1N3C (configuration not stated)
inactive: [1] > 100 µM | [2] > 100 µM | [3] > 100 µM | [4] > 100 µM | [5] > 100 µM | [6] > 100 µM | [7] > 100 µM | [8] > 100 µM | [9] > 100 µM | [10] > 100 µM | [11] 35.6 µM | [12] > 100 µM | [13] > 100 µM | [14] > 100 µM | [15] > 100 µM | [16] 33.6 µM | [17] > 100 µM | [18] 22.9 µM

COC(=O)c1cc(CC(C)C)c2c(c1)[nH]c1ccccc12
inactive: [1] 68.2 µM | [2] > 100 µM | [3] > 100 µM | [4] 78.7 µM | [5] > 100 µM | [6] > 100 µM | [7] > 100 µM | [8] > 100 µM | [9] > 100 µM | [10] > 100 µM | [11] 18.2 µM | [12] > 100 µM | [13] > 10 µM | [14] > 100 µM | [15] > 100 µM | [16] > 100 µM | [17] > 100 µM | [18] 43.5 µM

Cc1cn([C@@H]2C[C@H](CO)[C@@H](O)C2)c(=O)[nH]c1=O
inactive: [1] > 100 µM | [2] > 100 µM | [3] > 100 µM | [5] > 100 µM | [6] > 100 µM | [7] > 100 µM | [8] > 100 µM | [9] > 100 µM | [10] > 100 µM | [11] 78.9 µM | [12] > 100 µM | [13] > 100 µM | [14] > 100 µM | [15] > 100 µM | [16] > 100 µM | [17] > 100 µM | [18] > 100 µM

O=C1C(Cl)=C(Cl)C(=O)N1C1C2CC3CC(C2)CC1C3 (configuration not stated)
inactive: [1] 27.9 µM | [2] > 100 µM | [3] > 100 µM | [19] 27 µM | [4] > 100 µM | [5] > 100 µM | [6] > 100 µM | [7] > 100 µM | [8] > 100 µM | [9] > 100 µM | [10] > 100 µM | [11] > 100 µM | [12] 32.8 µM | [13] > 100 µM | [14] 19.3 µM | [15] > 100 µM | [17] > 100 µM | [18] > 100 µM

CC1=NOC(=O)/C1=C/c1ccc([N+](=O)[O-])cc1
inactive: [1] > 100 µM | [2] > 100 µM | [3] > 100 µM | [4] > 100 µM | [5] > 100 µM | [6] > 100 µM | [7] > 100 µM | [8] > 100 µM | [9] > 100 µM | [10] > 100 µM | [11] > 100 µM | [12] > 100 µM | [13] > 100 µM | [14] > 100 µM | [15] > 100 µM | [16] > 100 µM | [17] > 100 µM | [18] > 100 µM

COc1ccc(-c2ccccc2)c(N/N=C2\CCCNC2=O)c1
inactive: [1] > 100 µM | [2] 13.1 µM | [3] > 100 µM | [19] > 100 µM | [4] 28.2 µM | [5] > 100 µM | [6] 81.7 µM | [7] 43.5 µM | [8] > 100 µM | [9] > 100 µM | [10] > 100 µM | [11] 32.8 µM | [12] > 100 µM | [13] > 100 µM | [15] > 100 µM | [16] > 100 µM | [17] > 100 µM | [18] > 100 µM
